Assay [1] addresses T1, BasE (Acinetobacter baumannii, UniProt A0A0D5YGP3). The class given is biochemical.
The target in assay [2] is T2, EntE (Escherichia coli, UniProt P10378). The settings on record: cited from earlier work.
For assay [3], the target named is T1, BasE. Nature of the assay: biochemical. The class given is binding.
Assay [4] addresses T2, EntE. Nature of the assay: biochemical. The class given is binding.
The target of assay [5] is T1, BasE. The class given is binding.
Assay [6] concerns the target T3, YbtE (Yersinia pseudotuberculosis serotype I, UniProt Q3V7P9).
In assay [7] the target is T4, DhbE (Bacillus subtilis, UniProt P40871). The class given is binding.
T4 sequence (P40871 whole entry): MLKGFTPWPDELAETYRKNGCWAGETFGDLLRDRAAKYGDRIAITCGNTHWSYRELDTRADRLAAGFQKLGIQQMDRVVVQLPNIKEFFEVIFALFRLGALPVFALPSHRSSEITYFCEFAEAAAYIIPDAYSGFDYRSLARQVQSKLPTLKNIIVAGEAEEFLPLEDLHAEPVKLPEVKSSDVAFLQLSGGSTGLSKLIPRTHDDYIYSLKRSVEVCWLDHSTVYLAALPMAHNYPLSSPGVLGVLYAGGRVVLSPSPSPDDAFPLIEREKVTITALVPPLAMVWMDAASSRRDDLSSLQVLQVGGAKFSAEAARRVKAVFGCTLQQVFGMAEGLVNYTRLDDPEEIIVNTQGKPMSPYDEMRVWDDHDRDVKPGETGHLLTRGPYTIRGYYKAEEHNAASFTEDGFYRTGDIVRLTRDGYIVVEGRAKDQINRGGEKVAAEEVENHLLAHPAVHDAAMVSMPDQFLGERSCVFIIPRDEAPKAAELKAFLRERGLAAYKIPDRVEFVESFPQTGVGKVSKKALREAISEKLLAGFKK
The target in assay [8] is T5, MbtA (Mycobacterium tuberculosis, UniProt P71716).
T5 sequence (P71716 whole entry, looked up): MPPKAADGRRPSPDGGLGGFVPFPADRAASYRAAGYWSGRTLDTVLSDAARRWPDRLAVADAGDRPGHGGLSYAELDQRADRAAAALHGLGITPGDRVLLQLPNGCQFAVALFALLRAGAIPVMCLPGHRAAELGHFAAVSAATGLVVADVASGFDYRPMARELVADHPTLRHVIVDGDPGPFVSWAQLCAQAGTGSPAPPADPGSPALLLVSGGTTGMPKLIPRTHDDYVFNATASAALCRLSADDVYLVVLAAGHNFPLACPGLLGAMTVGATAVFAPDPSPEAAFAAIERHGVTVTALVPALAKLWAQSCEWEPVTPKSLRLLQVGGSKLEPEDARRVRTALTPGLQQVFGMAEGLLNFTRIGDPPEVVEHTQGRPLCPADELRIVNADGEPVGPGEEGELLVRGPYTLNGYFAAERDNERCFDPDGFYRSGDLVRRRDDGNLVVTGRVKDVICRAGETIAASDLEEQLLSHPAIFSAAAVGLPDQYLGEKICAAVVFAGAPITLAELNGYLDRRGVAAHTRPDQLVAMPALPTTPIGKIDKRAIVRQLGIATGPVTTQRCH
Another assay deals with AsbC (Bacillus anthracis, UniProt Q81RQ7).
Chain of AsbC (Q81RQ7 whole entry, looked up): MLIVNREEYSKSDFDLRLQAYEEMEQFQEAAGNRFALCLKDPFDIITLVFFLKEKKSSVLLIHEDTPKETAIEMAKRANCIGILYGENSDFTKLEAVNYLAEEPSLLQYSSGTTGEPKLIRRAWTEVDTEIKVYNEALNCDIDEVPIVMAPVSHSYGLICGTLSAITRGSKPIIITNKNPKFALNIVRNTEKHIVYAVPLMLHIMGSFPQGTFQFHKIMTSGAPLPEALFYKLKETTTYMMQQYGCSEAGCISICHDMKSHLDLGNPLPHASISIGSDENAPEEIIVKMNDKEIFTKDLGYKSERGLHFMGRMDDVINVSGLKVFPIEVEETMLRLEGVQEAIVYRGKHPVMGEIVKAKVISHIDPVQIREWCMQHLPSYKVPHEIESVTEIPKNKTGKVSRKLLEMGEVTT
Assay [9] concerns the target T5, MbtA. This is another data set of the same source.
The target of assay [10] is T6, VibE (Vibrio cholerae serotype O1, UniProt O07899).
T6 sequence (O07899 whole entry): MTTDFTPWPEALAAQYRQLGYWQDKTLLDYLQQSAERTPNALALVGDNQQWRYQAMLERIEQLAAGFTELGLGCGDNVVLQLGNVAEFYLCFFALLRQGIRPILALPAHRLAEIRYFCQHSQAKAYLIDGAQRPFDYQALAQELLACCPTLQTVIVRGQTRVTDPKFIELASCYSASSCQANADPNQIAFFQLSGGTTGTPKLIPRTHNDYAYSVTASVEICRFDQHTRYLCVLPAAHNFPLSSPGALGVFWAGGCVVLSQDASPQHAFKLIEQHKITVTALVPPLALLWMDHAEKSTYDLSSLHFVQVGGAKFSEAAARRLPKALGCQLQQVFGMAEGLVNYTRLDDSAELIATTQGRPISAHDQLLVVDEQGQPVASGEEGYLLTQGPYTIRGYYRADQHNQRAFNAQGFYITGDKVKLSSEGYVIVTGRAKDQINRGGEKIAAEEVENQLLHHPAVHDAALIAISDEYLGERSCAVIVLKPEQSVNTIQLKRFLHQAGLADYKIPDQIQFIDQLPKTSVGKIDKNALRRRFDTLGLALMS
The target in assay [11] is T5, MbtA. The source holds these as a separate data set.
In assay [12] the target is T2, EntE.
Assay [13] addresses T1, BasE. The class given is binding. The source holds these as a separate data set.
Assay [14] concerns the target T5, MbtA. Nature of the assay: biochemical. The class given is binding.
The target of assay [15] is T6, VibE. Nature of the assay: biochemical. The class given is binding.
Assay [16] deals with T4, DhbE. Nature of the assay: biochemical. The class given is binding.
In assay [17] the target is T3, YbtE. Conditions: read-out: Calculated Ligand-Protein Dissociation Constant KD2.
Where [18] appears, read: Calculated Ligand-Protein Dissociation Constant KD2.
Setting [19] is: read-out: Calculated Ligand-Protein Dissociation Constant KD2.

Where two headings read alike, the source gives them in different places.

The kcat is the maximal rate divided by the concentration of active sites. What is called koff is the rate constant with which the complex falls apart. Higher therefore signals fast dissociation. One may read the Km as the concentration of substrate that gives half-maximal velocity.

T1 sequence (A0A0D5YGP3 1-542): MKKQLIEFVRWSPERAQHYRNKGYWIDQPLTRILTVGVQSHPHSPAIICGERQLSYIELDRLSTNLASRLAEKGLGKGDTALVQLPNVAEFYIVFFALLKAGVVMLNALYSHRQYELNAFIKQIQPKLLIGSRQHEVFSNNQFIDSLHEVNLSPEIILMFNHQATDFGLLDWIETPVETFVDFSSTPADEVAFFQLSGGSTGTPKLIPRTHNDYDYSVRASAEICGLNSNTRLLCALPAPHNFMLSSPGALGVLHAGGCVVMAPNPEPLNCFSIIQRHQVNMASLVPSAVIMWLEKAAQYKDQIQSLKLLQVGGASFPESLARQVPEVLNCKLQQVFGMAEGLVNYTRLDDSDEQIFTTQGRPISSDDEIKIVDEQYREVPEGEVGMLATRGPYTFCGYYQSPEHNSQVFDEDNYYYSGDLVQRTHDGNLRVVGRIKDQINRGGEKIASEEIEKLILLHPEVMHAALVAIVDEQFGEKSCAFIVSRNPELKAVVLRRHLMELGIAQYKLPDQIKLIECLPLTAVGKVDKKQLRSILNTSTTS
T3 sequence (Q3V7P9 1-525): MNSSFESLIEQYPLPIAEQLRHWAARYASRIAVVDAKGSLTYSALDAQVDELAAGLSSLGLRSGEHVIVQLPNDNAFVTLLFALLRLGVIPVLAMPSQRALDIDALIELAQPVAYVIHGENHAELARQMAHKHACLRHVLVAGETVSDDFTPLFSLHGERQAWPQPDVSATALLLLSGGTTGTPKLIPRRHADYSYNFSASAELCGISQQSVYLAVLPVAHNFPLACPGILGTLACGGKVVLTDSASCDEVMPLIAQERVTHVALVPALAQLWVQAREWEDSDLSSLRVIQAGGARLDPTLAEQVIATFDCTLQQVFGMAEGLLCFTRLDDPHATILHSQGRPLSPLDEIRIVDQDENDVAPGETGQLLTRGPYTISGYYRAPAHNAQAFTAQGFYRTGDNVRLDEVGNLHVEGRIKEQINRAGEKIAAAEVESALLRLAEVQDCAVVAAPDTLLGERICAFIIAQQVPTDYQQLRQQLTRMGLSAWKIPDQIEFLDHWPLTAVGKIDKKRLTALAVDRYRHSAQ
T2 sequence (P10378 whole entry): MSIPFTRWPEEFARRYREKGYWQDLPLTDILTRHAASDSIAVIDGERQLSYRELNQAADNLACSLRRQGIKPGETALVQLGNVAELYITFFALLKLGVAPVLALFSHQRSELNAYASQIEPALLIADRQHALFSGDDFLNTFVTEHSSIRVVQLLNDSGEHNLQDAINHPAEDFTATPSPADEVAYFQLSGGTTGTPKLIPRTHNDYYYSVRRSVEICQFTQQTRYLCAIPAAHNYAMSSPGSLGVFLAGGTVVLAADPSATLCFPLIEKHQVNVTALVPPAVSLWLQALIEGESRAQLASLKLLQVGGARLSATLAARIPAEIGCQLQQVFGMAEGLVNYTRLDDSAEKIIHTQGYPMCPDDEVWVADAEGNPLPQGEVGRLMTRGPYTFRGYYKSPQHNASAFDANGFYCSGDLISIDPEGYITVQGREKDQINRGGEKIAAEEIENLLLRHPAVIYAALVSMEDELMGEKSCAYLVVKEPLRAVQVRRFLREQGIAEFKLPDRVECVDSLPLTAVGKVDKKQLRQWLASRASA

Turning to `O=C(O)c1ccc(O)c(O)c1` [3,4-dihydroxybenzoic acid], at BasE [1], the “kcat (pyrophosphate exchange)” value is < 0.017 s⁻¹.
Regarding `O=C(O)c1ccccc1` [benzoic acid], the catalytic constant (kcat) on EntE [2] is < 0.017 s⁻¹. In addition, the “kcat (pyrophosphate exchange)” value at BasE [1] is < 0.017 s⁻¹.
On to `Nc1ncnc2c1ncn2[C@@H]1O[C@H](COS(=O)(=O)NC(=O)c2ccccc2O)[C@@H](O)[C@H]1O` [compound 4, 5′-O-[N-(salicyl)sulfamoyl]adenosine], for which the Kd at BasE [3] (setting [18]) was 0.0167 ± 0.0031 µM; at EntE [4] (setting [18]), 0.0336 ± 0.006 µM.
As to `CCN(CC)CC.Nc1ncnc2c1ncn2[C@@H]1O[C@H](COS(=O)(=O)NC(=O)c2ccccc2O)[C@@H](O)[C@H]1OCCOCCOCCNC(=O)c1ccc2c(c1)C(=O)OC21c2ccc(O)cc2Oc2cc(O)ccc21` [compound 6, 2′-O-{2-[2-(2-{[(Fluorescein-5-yl)carbonyl]amino}ethoxy)ethoxy]ethoxy}-5′-O-[N-(2-hydroxybenzoyl)sulfamoyl]adenosine Triethylammonium Salt], the AB at BasE [5] amounted to 0.222 ± 0.002; on YbtE [6], 0.240 ± 0.002; on DhbE [7] it was 0.213 ± 0.005; at VibE [10] it was 0.200 ± 0.002; on EntE [12], 0.210 ± 0.001. Moreover, the Q on BasE [5] was 1.02; on YbtE [6], 1.07; at DhbE [7] it was 0.89; on MbtA [9], 1.07; on VibE [10] it was 1.27; on EntE [12] it was 1.21. For the same molecule, the Kd on YbtE [6] worked out at 0.0576 ± 0.0034 µM; at DhbE [7], 0.369 ± 0.033 µM; at VibE [10], 0.0855 ± 0.0056 µM; at EntE [12] it was 0.221 ± 0.008 µM. For the same molecule, the TΔS came out at 0.71 ± 0.80 kcal/mol on MbtA [8] and 4.41 ± 0.18 kcal/mol at BasE [13]. The ΔH was -9.80 ± 1.06 kcal/mol at MbtA [8] and -4.88 ± 0.17 kcal/mol on BasE [13]. Moreover, the “change of fluorescence anisotropy of the probe (binding to AsbC)” value on AsbC is reported as “did not show a significant change”. Further, at MbtA [11], the koff was found to be 0.0085 ± 0.00033 s⁻¹.
Consider `O=C(O)c1ccccc1O` [compound 20, salicylic acid], for which the Km on EntE [2] was 91 µM. On EntE [2], the catalytic constant (kcat) is 2.5 s⁻¹. For the same molecule, the Kd is 57.5 µM at BasE [3] (setting [18]), 11.9 µM on MbtA [14], 36.6 µM on VibE [15] and 211 µM at EntE [4] (setting [18]).
For `O=C(O)c1cccc(O)c1O` [compound 21, 2,3-dihydroxybenzoic acid], the Kd on BasE [3] (setting [18]) is 2.63 µM; at MbtA [14], > 300 µM; at VibE [15], 1.64 µM; at EntE [4] (setting [18]) it was 8.18 µM; on DhbE [16], 3.76 µM.
For `Nc1ncnc2c1ncn2[C@@H]1O[C@H](COP(=O)(O)O)[C@@H](O)[C@H]1O` [compound 22, adenosine monophosphate], the Kd on BasE [3] (setting [19]) was 173 µM; at MbtA [14] (setting [19]), 183 µM; on VibE [15], 12 µM; on VibE [15] (setting [19]), 12 µM; at EntE [4] (setting [19]), 125 µM; on YbtE [17] it was 260 µM.

These data come from PMC2654387 (Biochemistry, 2008).
